The results in this text go back to paper PMC4579270, “Identification and Characterization of an Irreversible Inhibitor of CDK2” (Chemistry & Biology, 2015).

Experiment in all cases: Dundee protein kinase screen
Format in all cases: biochemical

Assay [1] addresses Lck (Homo sapiens, UniProt P06239). Particulars: read-out: %Remaining activity at 1µM NU6300. The method, boiled down: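 Selectivity panel of 131 protein kinases, inhibitor tested at a single concentration of 1 µM; values are % kinase activity remaining, mean of duplicates. Re-test of selected kinases used 0.5 µM in the standard format and again after a 4 hour pre-incubation with the inhibitor.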

Assay [2] has as its target SGK1 (Homo sapiens, UniProt O00141). Particulars: SGK1, 1µM; read-out: %Remaining activity at 1µM NU6300. Here is the method: (§1) Prior to determining its cellular activity, we carried out a screen to assess its selectivity against a panel of 131 protein kinases under conditions that would not distinguish between a reversible or irreversible mode of action. […] These 13 kinases and 29 additional kinases, selected for their known sensitivity to other inhibitors within the purine series, were then tested in a modified screening format in which the assay was repeated following a 4-hr pre-incubation (Table S3B). […] However, conformational flexibility around the active site may promote such an interaction with a residue from another part of the structure ([Martin et al., 2012]).
(§2) Table S3, Related to Figure 4. NCL-0006300 protein kinase selectivity. (A) NU6300 was tested at a single concentration of 1µM against 131 protein kinases present in a Dundee protein kinase screen (Bain et al., 2007). Values given are % activity remaining and are the average of duplicate measurements: 0-25% (red), 26-50% (yellow), 51-80% (black) and above 81% (green). The kinase domain sequences (as defined by UniProt) of […]
(§3) have a lysine residue at a position close to CDK2 Lys88 or Lys89. However, in the structure of tyrosine-protein kinase BTK (PDB ID: 3GEN) the residue equivalent to CDK2 Asp86 is Cys481 and therefore there is the potential for a covalent adduct to be formed through this side chain. Ephrin type-B receptor 3 (UniProt entry P54753) also encodes a cysteine residue (Cys717) that by sequence alignment would be predicted to be close to the CDK2 lysine pair. (B) Selected kinases were re-tested in the Dundee kinase screen against NU6300 at a single concentration of 0.5 µM both in the standard assay format and following a 4 hour pre-incubation in the presence of NU6300. Kinases which have very low activity after the 4 hour incubation so that results might not be wholly reliable are boxed in salmon. Kinases where the activity after a 4 hour pre-incubation is < 50% that in the standard assay format are highlighted in red.

The target of assay [3] is IRAK1 (Homo sapiens, UniProt P51617). The conditions noted are these: IRAK1, 1µM; read-out: %Remaining activity at 1µM NU6300. Here is the method: as §1, §2, §3
Assay [4] addresses S6K1 (Homo sapiens, UniProt P23443). Particulars: S6K1, 1µM; read-out: %Remaining activity at 1µM NU6300. On the procedure:
as §1, §2, §3

The target of assay [5] is RIPK2 (Homo sapiens, UniProt O43353). Particulars: RIPK2, 1µM; read-out: %Remaining activity at 1µM NU6300. On the procedure:
as §1, §2, §3

Assay [6] has as its target MEKK1 (Homo sapiens, UniProt Q13233). The conditions noted are these: MEKK1, 1µM; read-out: %Remaining activity at 1µM NU6300. On the procedure: as §1, §2, §3
The target of assay [7] is MLK3 (Homo sapiens, UniProt Q16584). Particulars: MLK3, 1µM; read-out: %Remaining activity at 1µM NU6300. Here is the method: as §1, §2, §3
The target of assay [8] is IR (Homo sapiens, UniProt P06213). The conditions noted are these: read-out: %Remaining activity at 1µM NU6300. Here is the method: as §1, §2, §3
IR, sequence (P06213 28-1382): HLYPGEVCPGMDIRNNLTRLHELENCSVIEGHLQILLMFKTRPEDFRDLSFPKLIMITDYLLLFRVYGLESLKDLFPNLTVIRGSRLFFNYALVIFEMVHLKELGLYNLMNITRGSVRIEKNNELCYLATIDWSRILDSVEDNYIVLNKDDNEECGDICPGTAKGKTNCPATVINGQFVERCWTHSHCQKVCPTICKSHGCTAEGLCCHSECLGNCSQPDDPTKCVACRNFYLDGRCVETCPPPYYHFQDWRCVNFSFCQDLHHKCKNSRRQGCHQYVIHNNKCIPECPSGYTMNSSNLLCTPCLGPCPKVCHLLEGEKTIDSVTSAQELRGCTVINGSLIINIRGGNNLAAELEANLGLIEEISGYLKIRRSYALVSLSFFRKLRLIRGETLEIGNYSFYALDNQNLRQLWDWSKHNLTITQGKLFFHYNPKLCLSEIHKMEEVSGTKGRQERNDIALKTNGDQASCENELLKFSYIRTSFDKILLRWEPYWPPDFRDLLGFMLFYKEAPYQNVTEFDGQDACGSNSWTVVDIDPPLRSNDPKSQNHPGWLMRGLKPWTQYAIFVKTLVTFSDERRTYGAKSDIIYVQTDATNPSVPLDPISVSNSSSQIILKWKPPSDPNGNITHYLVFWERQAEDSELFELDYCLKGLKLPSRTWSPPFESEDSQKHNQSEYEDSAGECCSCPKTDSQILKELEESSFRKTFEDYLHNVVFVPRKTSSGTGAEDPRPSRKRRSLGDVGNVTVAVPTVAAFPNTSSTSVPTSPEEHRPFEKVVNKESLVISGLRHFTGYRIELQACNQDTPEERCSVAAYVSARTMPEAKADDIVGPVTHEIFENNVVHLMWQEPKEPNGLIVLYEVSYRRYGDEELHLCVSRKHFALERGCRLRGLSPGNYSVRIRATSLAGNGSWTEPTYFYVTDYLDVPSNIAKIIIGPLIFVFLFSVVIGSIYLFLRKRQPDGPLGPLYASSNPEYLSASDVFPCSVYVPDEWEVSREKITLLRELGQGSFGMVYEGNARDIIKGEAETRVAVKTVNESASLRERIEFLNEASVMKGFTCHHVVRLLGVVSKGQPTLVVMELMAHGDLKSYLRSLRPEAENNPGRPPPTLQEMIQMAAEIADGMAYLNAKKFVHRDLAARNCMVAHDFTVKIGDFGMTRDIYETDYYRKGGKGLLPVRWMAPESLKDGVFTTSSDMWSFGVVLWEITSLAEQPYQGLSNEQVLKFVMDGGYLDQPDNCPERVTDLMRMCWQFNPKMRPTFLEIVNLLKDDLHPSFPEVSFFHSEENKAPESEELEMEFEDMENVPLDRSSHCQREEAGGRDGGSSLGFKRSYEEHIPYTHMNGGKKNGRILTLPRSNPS
Assay [9] deals with SIK3 (Homo sapiens, UniProt Q9Y2K2). The conditions noted are these: SIK3, 1µM; read-out: %Remaining activity at 1µM NU6300. On the procedure:
as §1, §2, §3

Assay [10] has as its target CAMKKβ (Homo sapiens, UniProt Q96RR4). The conditions noted are these: read-out: %Remaining activity at 1µM NU6300. On the procedure: as §1, §2, §3
Assay [11] has as its target JAK2 (Homo sapiens, UniProt O60674). The conditions noted are these: JAK2, 1µM; read-out: %Remaining activity at 1µM NU6300. Here is the method: as §1, §2, §3
The target in assay [12] is PIM3 (Homo sapiens, UniProt Q86V86). The conditions noted are these: PIM3, 1µM; read-out: %Remaining activity at 1µM NU6300. On the procedure:
as §1, §2, §3

The target of assay [13] is SmMLCK (Homo sapiens, UniProt Q15746). The conditions noted are these: read-out: %Remaining activity at 1µM NU6300. Here is the method: as §1, §2, §3
SmMLCK, sequence (Q15746 923-1914): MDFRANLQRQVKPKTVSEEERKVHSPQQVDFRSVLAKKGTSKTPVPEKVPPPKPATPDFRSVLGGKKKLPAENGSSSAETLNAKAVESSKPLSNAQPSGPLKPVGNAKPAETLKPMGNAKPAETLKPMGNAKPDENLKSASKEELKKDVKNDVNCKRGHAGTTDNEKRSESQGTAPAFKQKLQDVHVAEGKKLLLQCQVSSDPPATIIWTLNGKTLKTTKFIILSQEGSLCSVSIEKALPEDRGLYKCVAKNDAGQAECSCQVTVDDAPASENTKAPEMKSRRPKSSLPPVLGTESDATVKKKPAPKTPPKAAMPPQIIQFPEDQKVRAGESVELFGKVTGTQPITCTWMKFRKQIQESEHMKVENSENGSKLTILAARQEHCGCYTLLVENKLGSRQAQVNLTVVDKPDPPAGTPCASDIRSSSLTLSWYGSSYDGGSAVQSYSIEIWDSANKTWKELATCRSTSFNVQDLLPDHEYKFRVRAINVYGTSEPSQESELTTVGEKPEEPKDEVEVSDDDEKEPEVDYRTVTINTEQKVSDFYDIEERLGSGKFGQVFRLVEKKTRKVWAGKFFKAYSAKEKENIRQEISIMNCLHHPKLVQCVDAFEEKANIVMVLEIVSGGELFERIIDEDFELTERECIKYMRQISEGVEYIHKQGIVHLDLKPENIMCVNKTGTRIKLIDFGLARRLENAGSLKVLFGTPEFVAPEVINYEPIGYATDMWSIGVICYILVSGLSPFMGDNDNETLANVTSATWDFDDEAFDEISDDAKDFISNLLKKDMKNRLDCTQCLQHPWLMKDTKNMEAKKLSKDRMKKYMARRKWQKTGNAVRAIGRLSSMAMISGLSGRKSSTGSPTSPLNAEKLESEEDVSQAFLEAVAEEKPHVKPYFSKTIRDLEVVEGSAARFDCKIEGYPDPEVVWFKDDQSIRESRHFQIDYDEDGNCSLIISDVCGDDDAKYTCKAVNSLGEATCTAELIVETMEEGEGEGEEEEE
For assay [14], the target named is HIPK2 (Homo sapiens, UniProt Q9H2X6). The conditions noted are these: HIPK2, 1µM; read-out: %Remaining activity at 1µM NU6300. Here is the method:
as §1, §2, §3

In assay [15] the target is GSK3β (Homo sapiens, UniProt P49841). The conditions noted are these: read-out: %Remaining activity at 1µM NU6300. Here is the method: as §1, §2, §3
The target of assay [16] is RSK1 (Homo sapiens, UniProt Q15418). The conditions noted are these: RSK1, 1µM; read-out: %Remaining activity at 1µM NU6300. Here is the method: as §1, §2, §3
The target of assay [17] is PRK2 (Homo sapiens, UniProt Q16513). Particulars: PRK2, 1µM; read-out: %Remaining activity at 1µM NU6300. Here is the method:
as §1, §2, §3

SIK3, sequence (Q9Y2K2 whole entry): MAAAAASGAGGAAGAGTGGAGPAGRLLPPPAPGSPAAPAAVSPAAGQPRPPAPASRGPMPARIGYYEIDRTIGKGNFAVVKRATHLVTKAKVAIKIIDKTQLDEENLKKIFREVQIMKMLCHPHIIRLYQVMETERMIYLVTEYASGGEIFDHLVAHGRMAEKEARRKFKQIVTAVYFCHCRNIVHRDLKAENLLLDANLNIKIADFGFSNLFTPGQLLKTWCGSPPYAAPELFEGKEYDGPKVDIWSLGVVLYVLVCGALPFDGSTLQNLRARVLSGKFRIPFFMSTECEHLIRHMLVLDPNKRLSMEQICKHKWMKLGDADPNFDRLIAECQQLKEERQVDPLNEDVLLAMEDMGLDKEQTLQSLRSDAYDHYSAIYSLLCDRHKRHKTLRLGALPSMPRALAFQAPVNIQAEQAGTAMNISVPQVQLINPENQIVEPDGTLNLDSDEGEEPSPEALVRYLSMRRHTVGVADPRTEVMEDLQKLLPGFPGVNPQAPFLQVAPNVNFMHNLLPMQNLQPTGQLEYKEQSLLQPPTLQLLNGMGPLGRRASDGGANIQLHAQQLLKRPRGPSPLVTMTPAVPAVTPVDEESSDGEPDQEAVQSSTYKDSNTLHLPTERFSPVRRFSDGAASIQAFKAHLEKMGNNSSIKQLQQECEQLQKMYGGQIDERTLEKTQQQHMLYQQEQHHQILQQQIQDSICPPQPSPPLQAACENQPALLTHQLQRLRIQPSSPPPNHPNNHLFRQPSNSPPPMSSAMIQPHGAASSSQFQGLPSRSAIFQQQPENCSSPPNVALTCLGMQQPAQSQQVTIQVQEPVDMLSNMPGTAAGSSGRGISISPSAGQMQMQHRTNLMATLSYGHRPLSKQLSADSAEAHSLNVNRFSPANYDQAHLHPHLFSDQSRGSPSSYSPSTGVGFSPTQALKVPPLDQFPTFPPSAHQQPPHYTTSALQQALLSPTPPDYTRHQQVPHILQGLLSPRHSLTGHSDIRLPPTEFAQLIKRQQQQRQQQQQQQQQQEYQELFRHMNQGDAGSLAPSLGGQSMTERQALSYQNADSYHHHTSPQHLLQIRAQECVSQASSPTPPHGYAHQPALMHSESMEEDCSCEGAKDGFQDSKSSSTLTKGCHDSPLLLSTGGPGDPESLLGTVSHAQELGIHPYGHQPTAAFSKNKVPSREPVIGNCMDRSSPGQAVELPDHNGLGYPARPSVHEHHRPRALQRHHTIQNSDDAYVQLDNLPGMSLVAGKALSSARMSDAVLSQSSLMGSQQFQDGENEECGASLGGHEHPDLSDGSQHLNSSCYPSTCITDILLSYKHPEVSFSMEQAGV
CAMKKβ, sequence (Q96RR4 whole entry): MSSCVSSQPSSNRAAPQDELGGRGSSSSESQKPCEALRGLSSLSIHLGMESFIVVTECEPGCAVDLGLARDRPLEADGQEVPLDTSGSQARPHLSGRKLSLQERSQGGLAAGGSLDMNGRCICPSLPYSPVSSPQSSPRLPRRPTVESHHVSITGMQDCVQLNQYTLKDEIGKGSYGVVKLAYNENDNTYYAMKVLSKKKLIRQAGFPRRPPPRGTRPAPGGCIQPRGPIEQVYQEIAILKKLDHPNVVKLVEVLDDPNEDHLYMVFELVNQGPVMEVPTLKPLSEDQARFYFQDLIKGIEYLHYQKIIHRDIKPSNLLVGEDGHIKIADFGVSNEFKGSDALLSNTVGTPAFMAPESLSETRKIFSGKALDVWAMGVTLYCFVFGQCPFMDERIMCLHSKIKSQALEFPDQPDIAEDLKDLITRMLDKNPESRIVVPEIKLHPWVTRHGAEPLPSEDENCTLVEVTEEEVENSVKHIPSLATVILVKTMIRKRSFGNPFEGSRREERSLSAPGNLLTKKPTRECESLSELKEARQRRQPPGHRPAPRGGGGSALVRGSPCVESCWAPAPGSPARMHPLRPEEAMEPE
SGK1, sequence (O00141 whole entry): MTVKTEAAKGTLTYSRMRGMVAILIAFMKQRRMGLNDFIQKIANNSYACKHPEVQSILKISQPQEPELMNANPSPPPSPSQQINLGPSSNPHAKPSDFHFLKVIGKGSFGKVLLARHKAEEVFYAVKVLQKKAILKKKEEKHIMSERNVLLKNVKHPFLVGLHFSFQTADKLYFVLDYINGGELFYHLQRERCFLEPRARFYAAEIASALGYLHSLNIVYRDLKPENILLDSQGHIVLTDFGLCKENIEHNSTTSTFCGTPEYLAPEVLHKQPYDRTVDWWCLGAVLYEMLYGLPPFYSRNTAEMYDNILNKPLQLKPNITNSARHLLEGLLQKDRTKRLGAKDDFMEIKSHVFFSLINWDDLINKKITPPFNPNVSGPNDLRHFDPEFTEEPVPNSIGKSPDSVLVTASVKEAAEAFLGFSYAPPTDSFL

For the compound `C=CS(=O)(=O)c1ccc(Nc2nc(OCC3CCCCC3)c3nc[nH]c3n2)cc1` [NU6300, 6-(cyclohexylmethoxy)-N-(4-(vinylsulfonyl)phenyl)-9H-purin-2-amine], the remaining activity at 1 µM worked out at 42% in assay [1]; 93% in assay [2]; 37% in assay [3]; 82% in [4]; 86% in [5]; 89% in assay [6]. The remaining activity at 1 µM amounted to 16% in [7]; 32% in assay [8]; 76% in assay [9]; 73% in assay [10]; 5% in assay [11]; 56% in assay [12]. Besides, the remaining activity at 1 µM turned out to be 85% in assay [13]; 61% in [14]; 42% in [15]; 50% in assay [16]; 50% in [17].
